Data set [1] concerns the target T1, L-2-hydroxy-4-methylpentanoic acid-dehydrogenase (Weissella confusa, UniProt P14295).
T1 construct: the cells harvesting by centrifugation, solubilizing the product in a suspension buffered to pH 7 and obtaining the enzyme from the extract; made in house; host or cells: Lactobacillus confusus DSM 20196 (natural producer, not recombinant)
T1 sequence (P14295 1-310): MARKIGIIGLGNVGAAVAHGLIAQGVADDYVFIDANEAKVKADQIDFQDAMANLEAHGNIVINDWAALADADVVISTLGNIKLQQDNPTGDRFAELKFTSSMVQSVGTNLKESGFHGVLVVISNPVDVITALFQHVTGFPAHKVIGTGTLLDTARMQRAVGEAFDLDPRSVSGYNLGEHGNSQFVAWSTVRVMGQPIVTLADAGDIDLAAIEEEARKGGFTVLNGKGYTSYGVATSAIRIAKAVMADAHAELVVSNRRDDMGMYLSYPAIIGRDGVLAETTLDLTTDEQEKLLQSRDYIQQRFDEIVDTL
The data set is described as follows: Dehydrogenation of 2-hydroxycarboxylic acids to 2-ketocarboxylic acids (Example 1), NADH formation at 340 nm. The class given is biochemical, Lactobacillus confusus. To be noted: same enzyme solution. As for the experimental part:
(§1) In each case, there was measured the maximal initial reaction velocity Vmax and the KM value. […] In a corresponding manner, the enzymatic activity against other 2-hydroxycarboxylic acids was determined. The concentration of the corresponding 2-hydroxycarboxylic acids in the test was varied between 0.2 and a maximum of 100 millimoles. By increasing the substrate concentration, the maximum beginning reaction velocity Vmax was ascertained. The Michaelis constant (KM value) corresponds to the substrate concentration in moles/liter, at which the reaction velocity V amounts to half the maximum initial reaction velocity. The kinetic constants Vmax and KM were ascertained through non-linear regression of the Michaelis-[…] and are collected in Table 2. […] The relative activities (U/ml) set forth in Table 3 were measured at substrate-final concentrations of 1 millimole, 10 millimoles, and 100 millimoles. In all cases, there was employed the same enzyme solution.

Data set [2] has as its target T1, L-2-hydroxy-4-methylpentanoic acid-dehydrogenase. Description: Reduction of 2-ketocarboxylic acids to L-2-hydroxycarboxylic acids (Example 2), NADH decrease at 340 nm. To be noted: same enzyme solution. The class given is biochemical, Lactobacillus confusus. On the procedure: (§2) In each case, there was again measured the maximal beginning reaction velocity Vmax and the KM value. […] In a corresponding manner there was determined the enzyme activity against other 2-ketocarboxylic acids. The keto acid concentration in each case was varied in the range of 0.01 to a maximum of 10 millimoles. The maximal initial reaction velocity was ascertained through the increase of the substrate concentration. The Michaelis constant (KM value) corresponds to the substrate concentration in moles/liter at which the reaction velocity V is half the maximum initial reaction velocity. The kinetic constants Vmax and KM were ascertained through nonlinear regression of the Michaelis-[…] equation and are summarized in following Table 4. The relative activities (U/ml) stated in Table 5 were measured at substrate final concentrations of 0.1 millimoles, 1 millimole, and 10 millimoles. In all cases, there was employed the same enzyme solution. At 10 millimoles in all substrates there was already noticeable a substrate excess inhibition.

Substrate in data set [3]: CSCCC(=O)C(=O)O
The data set is described as follows: purified protein, by the assay type. In kind it is biochemical, Lactobacillus confusus. To be noted: other: reduction, pH 7.0, 0.235 millimoles NADH. On the procedure:
as §2

Substrate in data set [4]: CCCC(=O)C(=O)O
Description: purified protein, by the assay type. The class given is biochemical, Lactobacillus confusus. To be noted: other: reduction, pH 7.0, 0.235 millimoles NADH. As for the experimental part:
as §2

Substrate in data set [5]: CC(C)CC(=O)C(=O)O
The data set is described as follows: purified protein, by the assay type. The class given is biochemical, Lactobacillus confusus. To be noted: other: reduction, pH 7.0, 0.235 millimoles NADH. As for the experimental part:
as §2

Substrate in data set [6]: CCCCC(=O)C(=O)O
The data set is described as follows: purified protein, by the assay type. In kind it is biochemical, Lactobacillus confusus. To be noted: other: reduction, pH 7.0, 0.235 millimoles NADH. On the procedure: as §2

Substrate in data set [7]: CSCCC(O)C(=O)O
The data set is described as follows: purified protein, by the assay type. The class given is biochemical, Lactobacillus confusus. To be noted: other: dehydrogenation, pH 8.0, 3 mmoles NAD+, with the enantiomer mixture based on the total concentration. As for the experimental part:
as §1

Substrate in data set [8]: CCCCC(O)C(=O)O
Description: purified protein, by the assay type. The class given is biochemical, Lactobacillus confusus. To be noted: other: dehydrogenation, pH 8.0, 3 mmoles NAD+, with the enantiomer mixture based on the total concentration. On the procedure: as §1

Substrate in data set [9]: CC(C)CC(O)C(=O)O
The data set is described as follows: purified protein, by the assay type. In kind it is biochemical, Lactobacillus confusus. To be noted: other: dehydrogenation, pH 8.0, 3 mmoles NAD+, with the enantiomer mixture based on the total concentration. On the procedure:
as §1

Substrate in data set [10]: CC(C)C[C@H](O)C(=O)O
Description: purified protein, by the assay type. In kind it is biochemical, Lactobacillus confusus. To be noted: other: dehydrogenation, pH 8.0, 3 mmoles NAD+, with the enantiomer mixture based on the total concentration. As for the experimental part:
as §1

Substrate in data set [11]: CCCC(O)C(=O)O
Description: purified protein, by the assay type. In kind it is biochemical, Lactobacillus confusus. To be noted: other: dehydrogenation, pH 8.0, 3 mmoles NAD+, with the enantiomer mixture based on the total concentration. On the procedure: as §1

Substrate in data set [12]: NC(=O)C1=CN([C@@H]2O[C@H](COP(=O)(O)OP(=O)(O)OC[C@H]3O[C@@H](n4cnc5c(N)ncnc54)[C@H](O)[C@@H]3O)[C@@H](O)[C@H]2O)C=CC1
Description: purified protein, by the assay type. To be noted: other: pH 7.0, 0.79 millimole 2-keto-4-methylpentanoic acid, NADH 0.01 to 0.33 millimoles.

Substrate in data set [13]: NC(=O)c1ccc[n+]([C@@H]2O[C@H](COP(=O)([O-])OP(=O)(O)OC[C@H]3O[C@@H](n4cnc5c(N)ncnc54)[C@H](O)[C@@H]3O)[C@@H](O)[C@H]2O)c1
The data set is described as follows: Dependency of the dehydrogenation reaction velocity on the NAD+ concentration. The class given is biochemical, Lactobacillus confusus. To be noted: other: pH 8.0, 6.3 millimoles L-2-hydroxy-4-methylpentanoic acid, NAD+ 0.05 to 7.0 millimoles. The text has this:
The dependency of the reaction velocity on the NAD^+ concentration was ascertained in a test mixture which contained 0.1 molar phosphate buffer for pH 8.0, 6.3 millimoles of L-2-hydroxy-4-methylpentanoic acid and limiting amounts of enzyme. The NAD^+ concentration was varied in the range of 0.05 to 7.0 millimoles.
The KM value for NAD^+ was ascertained by non-linear regression of the Michaelis-Menten equation and was 3.3×10^-4 moles.

[14] abbreviates: test concentration 1 mM substrate.
Setting [15] is: test concentration 10 mM substrate.
[16] abbreviates: test concentration 100 mM substrate.
Where [17] appears, read: test concentration 0.1 mM substrate.

In the case of `CSCCC(O)C(=O)O` (racemic) [DL-2-Hydroxy-4-(methylmercapto)-butyric acid], the figures for the relative activity in data set [1] (setting [14]), in [1] (setting [15]) and in data set [1] (setting [16]) were 0.46 U/ml, 2.7 U/ml and 5.1 U/ml, respectively.
Taken in the same sequence, the figures for `CC(C)CC(O)C(=O)O` (racemic) [DL-2-Hydroxy-4-methylpentanoic acid] were 16.6 U/ml, 39.8 U/ml and 2.9 U/ml.
As for `CCCCC(O)C(=O)O` (racemic) [DL-2-Hydroxyhexanoic acid], the relative activity in [1] (setting [14]) was 8.4 U/ml; in data set [1] (setting [15]), 39.5 U/ml; in data set [1] (setting [16]) it was 3.9 U/ml.
Taken in the same sequence, the figures for `CCCC(O)C(=O)O` (racemic) [DL-2-Hydroxypentanoic acid] were 6.2 U/ml, 31.2 U/ml and 5.3 U/ml.
In the case of `CSCCC(=O)C(=O)O` [2-Keto-4-(methylmercapto)-butyric acid], the relative activity in data set [2] (setting [17]) was found to be 33 U/ml; in data set [2] (setting [14]), 93 U/ml; in data set [2] (setting [15]) it was 53 U/ml.
Taken in the same sequence, the figures for `CC(C)CC(=O)C(=O)O` [2-Keto-4-methylpentanoic acid] were 133 U/ml, 259 U/ml and 144 U/ml.
Taken in the same sequence, the figures for `CCCCC(=O)C(=O)O` [2-Ketohexanoic acid] were 123 U/ml, 301 U/ml and 103 U/ml.
Taken in the same sequence, the figures for `CCCC(=O)C(=O)O` [2-Ketopentanoic acid] were 149 U/ml, 344 U/ml and 161 U/ml.
For `CC(C)C[C@H](O)C(=O)O` [L-2-Hydroxy-4-methylpentanoic acid], the relative activity in [1] (setting [14]) is listed as 28.4 U/ml; in data set [1] (setting [15]), 49.7 U/ml; in data set [1] (setting [16]), 5.0 U/ml.

B1: L-2-hydroxy-4-methylpentanoic acid-dehydrogenase (Weissella confusa) (protein)
chain: MARKIGIIGLGNVGAAVAHGLIAQGVADDYVFIDANEAKVKADQIDFQDAMANLEAHGNIVINDWAALADADVVISTLGNIKLQQDNPTGDRFAELKFTSSMVQSVGTNLKESGFHGVLVVISNPVDVITALFQHVTGFPAHKVIGTGTLLDTARMQRAVGEAFDLDPRSVSGYNLGEHGNSQFVAWSTVRVMGQPIVTLADAGDIDLAAIEEEARKGGFTVLNGKGYTSYGVATSAIRIAKAVMADAHAELVVSNRRDDMGMYLSYPAIIGRDGVLAETTLDLTTDEQEKLLQSRDYIQQRFDEIVDTL
notes: the cells harvesting by centrifugation, solubilizing the product in a suspension buffered to pH 7 and obtaining the enzyme from the extract; made in house; host or cells: Lactobacillus confusus DSM 20196 (natural producer, not recombinant)
One may read the Vmax as the rate approached at saturating substrate. As to B1, the Km was 210 µM in data set [3]; 250 µM in data set [4]; 70 µM in data set [5]; 120 µM in [6]; 11000 µM in [7]; 4500 µM in [8]. In addition, the Km stood at 1400 µM in data set [9]; 620 µM in data set [10]; 3550 µM in [11]; 3.3e-05 mol in data set [12]; 330 µM in data set [13]. Besides, the Vmax in data set [3] came out at 28 µmol/min/mg; in [5], 64 µmol/min/mg; in data set [7], 1.2 µmol/min/mg; in data set [9], 9.6 µmol/min/mg; in data set [10], 9.8 µmol/min/mg.
